Measurements taken from PMC9482658, “Mechanistic understanding of human SLFN11” (Nature Communications, 2022).

T1: SLFN5 (Homo sapiens, UniProt Q08AF3)
T1 construct: recombinant
T1 sequence (Q08AF3 1-891): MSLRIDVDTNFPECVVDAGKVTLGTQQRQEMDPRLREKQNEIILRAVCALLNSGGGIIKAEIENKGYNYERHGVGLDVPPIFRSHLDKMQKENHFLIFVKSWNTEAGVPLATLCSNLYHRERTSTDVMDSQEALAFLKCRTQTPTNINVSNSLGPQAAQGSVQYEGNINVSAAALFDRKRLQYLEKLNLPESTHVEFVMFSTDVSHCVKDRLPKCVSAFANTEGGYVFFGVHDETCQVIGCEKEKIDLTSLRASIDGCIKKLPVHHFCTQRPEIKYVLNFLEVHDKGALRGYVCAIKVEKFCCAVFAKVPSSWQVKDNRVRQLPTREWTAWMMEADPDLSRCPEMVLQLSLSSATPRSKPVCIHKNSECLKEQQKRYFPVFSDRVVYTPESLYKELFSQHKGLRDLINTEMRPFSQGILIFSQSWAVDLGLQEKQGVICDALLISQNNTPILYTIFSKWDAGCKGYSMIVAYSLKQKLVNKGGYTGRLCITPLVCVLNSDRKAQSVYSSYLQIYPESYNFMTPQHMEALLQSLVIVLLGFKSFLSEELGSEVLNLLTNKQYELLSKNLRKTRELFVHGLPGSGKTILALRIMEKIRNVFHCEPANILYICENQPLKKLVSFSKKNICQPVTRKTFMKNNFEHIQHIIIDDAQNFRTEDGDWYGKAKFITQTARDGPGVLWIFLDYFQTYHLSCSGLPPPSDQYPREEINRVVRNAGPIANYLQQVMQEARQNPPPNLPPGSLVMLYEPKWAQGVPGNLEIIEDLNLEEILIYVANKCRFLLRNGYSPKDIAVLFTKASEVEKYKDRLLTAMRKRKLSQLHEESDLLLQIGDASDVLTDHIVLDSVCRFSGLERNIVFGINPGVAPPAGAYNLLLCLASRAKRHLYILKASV


Assays:
SLFN5 = target: T1, SLFN5; test: nanoDSF thermal unfolding (Tycho NT.[…]); format: binding; details: 1 mM nucleotide, 300 nM protein; 25 mM Tris pH 7.5, 60 mM NaCl, 2 mM MgCl2, 1 mM DTT
[1] = target: the molecule itself; test: cryo-EM structure; SLFN11^E209A at 5 uM; 50 mM glycine pH 9, 200 mM NaCl, 2 mM MgCl2, 1 mM DTT; dimer reconstructed in C2 symmetry; monomer reconstructed from another dataset
[2] = target: the molecule itself; test: mass photometry; 50 nM SLFN11 in 25 mM Tris pH 7.5, 2 mM MgCl2, 1 mM DTT with variable concentrations of NaCl; 100 or 300 nM 60 nt ssDNA added in the stabilisation experiment; monomer-dimer equilibrium

Molecule | unfolding temperature increase (SLFN5) | further results
Nc1ncnc2c1ncn2[C@@H]1O[C@H](COP(=O)(O)OP(=O)(O)OP(O)(O)=S)[C@@H](O)[C@H]1O [ATPγS] | SLFN5 shows a significant increase in unfolding temperature in presence of ATP and ATPγS | 
Nc1ncnc2c1ncn2[C@@H]1O[C@H](COP(=O)(O)OP(=O)(O)OP(=O)(O)O)[C@@H](O)[C@H]1O [ATP] | SLFN5 shows a significant increase in unfolding temperature in presence of ATP and ATPγS | 
full-length human SLFN11 E209A (enzyme, UniProt Q7Z7L1 1-901, looked up, Schlafen 11 (SLFN11), human, full length, nuclease active site mutant E209A; Made by site-directed mutagenesis of the wild-type construct; source: Trichoplusia ni High Five insect cells, expressed and purified as the wild-type protein) MEANQCPLVVEPSYPDLVINVGEVTLGEENRKKLQKIQRDQEKERVMRAACALLNSGGGVIRMAKKVEHPVEMGLDLEQSLRELIQSSDLQAFFETKQQGRCFYIFVKSWSSGPFPEDRSVKPRLCSLSSSLYRRSETSVRSMDSREAFCFLKTKRKPKILEEGPFHKIHKGVYQELPNSDPADPNSDPADLIFQKDYLEYGEILPFPASQLVEFKQFSTKHFQEYVKRTIPEYVPAFANTGGGYLFIGVDDKSREVLGCAKENVDPDSLRRKIEQAIYKLPCVHFCQPQRPITFTLKIVNVLKRGELYGYACMIRVNPFCCAVFSEAPNSWIVEDKYVCSLTTEKWVGMMTDTDPDLLQLSEDFECQLSLSSGPPLSRPVYSKKGLEHKKELQQLLFSVPPGYLRYTPESLWRDLISEHRGLEELINKQMQPFFRGILIFSRSWAVDLNLQEKPGVICDALLIAQNSTPILYTILREQDAEGQDYCTRTAFTLKQKLVNMGGYTGKVCVRAKVLCLSPESSAEALEAAVSPMDYPASYSLAGTQHMEALLQSLVIVLLGFRSLLSDQLGCEVLNLLTAQQYEIFSRSLRKNRELFVHGLPGSGKTIMAMKIMEKIRNVFHCEAHRILYVCENQPLRNFISDRNICRAETRKTFLRENFEHIQHIVIDEAQNFRTEDGDWYGKAKSITRRAKGGPGILWIFLDYFQTSHLDCSGLPPLSDQYPREELTRIVRNADPIAKYLQKEMQVIRSNPSFNIPTGCLEVFPEAEWSQGVQGTLRIKKYLTVEQIMTCVADTCRRFFDRGYSPKDVAVLVSTAKEVEHYKYELLKAMRKKRVVQLSDACDMLGDHIVLDSVRRFSGLERSIVFGIHPRTADPAILPNVLICLASRAKQHLYIFPWGGH |  | binding result [1]: binds
full-length human SLFN11 (Schlafen 11), wild type (enzyme, UniProt Q7Z7L1 1-901, looked up, Schlafen 11 (SLFN11), human, full length; domains: Slfn core 1-353, linker 354-576, helicase 577-901; residues 7-899 built in the model; The construct has an HRV 3C cleavage site after the N-terminal double FLAG tag; The protein was eluted with Flag peptide and no cleavage is described; It is in a monomer-dimer equilibrium in solution; also called SLFN11^wt; source: SEC for cryo-EM samples) MEANQCPLVVEPSYPDLVINVGEVTLGEENRKKLQKIQRDQEKERVMRAACALLNSGGGVIRMAKKVEHPVEMGLDLEQSLRELIQSSDLQAFFETKQQGRCFYIFVKSWSSGPFPEDRSVKPRLCSLSSSLYRRSETSVRSMDSREAFCFLKTKRKPKILEEGPFHKIHKGVYQELPNSDPADPNSDPADLIFQKDYLEYGEILPFPESQLVEFKQFSTKHFQEYVKRTIPEYVPAFANTGGGYLFIGVDDKSREVLGCAKENVDPDSLRRKIEQAIYKLPCVHFCQPQRPITFTLKIVNVLKRGELYGYACMIRVNPFCCAVFSEAPNSWIVEDKYVCSLTTEKWVGMMTDTDPDLLQLSEDFECQLSLSSGPPLSRPVYSKKGLEHKKELQQLLFSVPPGYLRYTPESLWRDLISEHRGLEELINKQMQPFFRGILIFSRSWAVDLNLQEKPGVICDALLIAQNSTPILYTILREQDAEGQDYCTRTAFTLKQKLVNMGGYTGKVCVRAKVLCLSPESSAEALEAAVSPMDYPASYSLAGTQHMEALLQSLVIVLLGFRSLLSDQLGCEVLNLLTAQQYEIFSRSLRKNRELFVHGLPGSGKTIMAMKIMEKIRNVFHCEAHRILYVCENQPLRNFISDRNICRAETRKTFLRENFEHIQHIVIDEAQNFRTEDGDWYGKAKSITRRAKGGPGILWIFLDYFQTSHLDCSGLPPLSDQYPREELTRIVRNADPIAKYLQKEMQVIRSNPSFNIPTGCLEVFPEAEWSQGVQGTLRIKKYLTVEQIMTCVADTCRRFFDRGYSPKDVAVLVSTAKEVEHYKYELLKAMRKKRVVQLSDACDMLGDHIVLDSVRRFSGLERSIVFGIHPRTADPAILPNVLICLASRAKQHLYIFPWGGH |  | stoichiometry N [2]: 2
